One compound from patent US20210130767A1, “Species of Genus Pholiota and Artificial Cultivation Method and Use Thereof” (Guangdong Institute of Microbiology (Guangdong Detection …, priority 2019, published 2021) can be followed below.

The experiment concerns Staphylococcus aureus. The experiment is described as follows: Determination of inhibition zone (agar well diffusion, coating / pour plate method). In kind it is cell-based. The note with it: 24 h, 37° C., 1 day, x ± s, n = 3, positive control ampicillin 5 μg/mL, read-out: inhibition zone diameter. How it is done: Bacterial medium: nutrient agar/broth medium;
Nutrition agar/broth medium: beef paste 3 g, peptone 10 g, sodium chloride 5 g, agar 15 g, add water to 1000 ml, and adjust the pH to 7.4 (nutrient broth without agar).
Preparation of ethyl acetate extract: using rice medium (formulated rice and water), the strain of the present invention was incubated and cultured for 45 days, ethyl acetate was added, ultrasonic extraction was performed twice, 40 minutes for each time, and the extract was combined. The solvent was recovered in a rotary evaporator, and steamed to about 1-2 mL of the extract, and transferred to a collection bottle, the ethyl acetate extract is obtained and placed in a vacuum desiccator. After the solvent was completely evaporated, it was transferred to a refrigerator at 4° C. for use, and was filtrated and sterilizd with the bacteria syringe and filter for use.
Positive control preparation: Ampicillin solution, diluted with sterile water to a concentration of 5 μg/mL of the control solution, UV sterilization for 30 min. […]
The counted bacteria solution was diluted to a final concentration of 10^5˜10^6 cfu/mL, and 200 μL of the prepared bacteria suspension was pipetted onto the plate and uniformly coated with a coater. […] The culture was allowed to stand for 1 day, and the size of inhibition zone was measured. […]
In general terms: In agar diffusion tests the substance spreads into inoculated agar from a disc or well.

On to `CC1(C)S[C@@H]2[C@H](NC(=O)[C@H](N)c3ccccc3)C(=O)N2[C@H]1C(=O)O` [Positive control, Ampicillin], for which the zone of inhibition at 5 µg/mL came out at 19.8 ± 1.7 mm.
